Reference: patent US11116213B2, “Herbicidal composition comprising cinmethylin and pethoxamid” (BASF Agro B.V., priority 2015, dated 2021)

Legend:
Type in all cases: in vivo
Abutilon theophrasti = test: Greenhouse pre-emergence herbicidal activity on ABUTH; details: 20 DAT
Method: (§1) The test plants have been seeded, separately for each species, in plastic containers in sandy loamy soil containing 5% of organic matter.
(§2) The containers were irrigated gently to promote germination and growth and subsequently covered with transparent plastic hoods until the plants had rooted.
(§3) The plants have been cultivated due to their individual requirements at 10-25° C. and 20-35° C.
(§4) The plants were irrigated due to their necessity.
(§5) The racemic mixture (±)-2-exo-(2-Methylbenzyloxy)-1-methyl-4-isopropyl-7-oxabicyclo[2.2.1]heptane was used as herbicide A and formulated as an emulsifiable concentrate with an active ingredient concentration of 750 g/l.
(§6) Pethoxamid (herbicide B) was used as an emulsifiable concentrate formulation having an active ingredient concentration of 600 g/l.
(§7) In the following experiments, the herbicidal activity for the individual herbicidal compositions (solo and mixture applications) was assessed 20 days after treatment (DAT).
(§8) The evaluation for the damage on undesired weeds caused by the chemical compositions was carried out using a scale from 0 to 100%, compared to the untreated control plants. Here, 0 means no damage and 100 means complete destruction of the plants. […]

Alopecurus myosuroides = test: Greenhouse pre-emergence herbicidal activity on ALOMY; details: 20 DAT
Method: as §1, §2, §3, §4, §5, §6, §7, §8

Anthemis arvensis = test: Greenhouse pre-emergence herbicidal activity on ANTAR; details: 20 DAT; for herbicidal activity (%): herbicide A solo
Method: as §1, §2, §3, §4, §5, §6, §7
(§9) The evaluation for the damage on undesired weeds caused by the chemical compositions was carried out using a scale from 0 to 100%, compared to the untreated control plants. Here, 0 means no damage and 100 means complete destruction of the plants.
(§10) E=X+Y−(X·Y/100) where • X=effect in percent using herbicide A at an application rate a; • Y=effect in percent using herbicide B at application rate b; • E=expected effect (in %) of herbicide A+herbicide B at application rates a+b.
(§11) The value E corresponds to the effect (plant damage or injury) which is to be expected if the activity of the individual compounds is additive.
(§12) Table 1 below relates to the herbicidal activity, in greenhouse trials, of the individual actives and the combinations applied at different rates and ratios, in pre-emergence application at 20 days after treatment (DAT).

Avena fatua = test: Greenhouse pre-emergence herbicidal activity on AVEFA; details: 20 DAT; for herbicidal activity (%): herbicide A solo
Method: as §1, §2, §3, §4, §5, §6, §7, §9, §10, §11, §12

Brassica napus = test: Greenhouse pre-emergence herbicidal activity on BRSNW; details: 20 DAT
Method: as §1, §2, §3, §4, §5, §6, §7, §8

Chenopodium album = test: Greenhouse pre-emergence herbicidal activity on CHEAL; details: 20 DAT
Method: as §1, §2, §3, §4, §5, §6, §7, §8

Lolium multiflorum = test: Greenhouse pre-emergence herbicidal activity on LOLMU; details: 20 DAT
Method: as §1, §2, §3, §4, §5, §6, §7, §8

Polygonum convolvulus = test: Greenhouse pre-emergence herbicidal activity on POLCO; details: 20 DAT; for herbicidal activity (%): herbicide A solo
Method: as §1, §2, §3, §4, §5, §6, §7, §9, §10, §11, §12

Setaria viridis = test: Greenhouse pre-emergence herbicidal activity on SETVI; details: 20 DAT
Method: as §1, §2, §3, §4, §5, §6, §7, §8

Sorghum halepense = test: Greenhouse pre-emergence herbicidal activity on SORHA; details: 20 DAT
Method: as §1, §2, §3, §4, §5, §6, §7, §8

[1] = herbicide A solo, 31.25 g ai/ha

Question: Which results are given for `CCOCCN(C(=O)CCl)C(=C(C)C)c1ccccc1` [pethoxamid, 2-chloro-N-(2-ethoxyethyl)-N-(2-methyl-1-phenylprop-1-enyl)acetamide]?
Answer: inhibition at 62.5 g/ha (Abutilon theophrasti; Abutilon theophrasti, 480 h, pethoxamid solo, 62.5 g ai/ha): 20%; inhibition at 125 g/ha (Alopecurus myosuroides; Alopecurus myosuroides, 480 h, pethoxamid solo, 125 g ai/ha): 35%; inhibition at 62.5 g/ha (Anthemis arvensis; Anthemis arvensis, 480 h, pethoxamid solo, 62.5 g ai/ha): 20%; inhibition at 125 g/ha (Anthemis arvensis; Anthemis arvensis, 480 h, pethoxamid solo, 125 g ai/ha): 60%; inhibition at 125 g/ha (Avena fatua; Avena fatua, 480 h, pethoxamid solo, 125 g ai/ha): 40%; inhibition at 250 g/ha (Avena fatua; Avena fatua, 480 h, pethoxamid solo, 250 g ai/ha): 40%; inhibition at 500 g/ha (Avena fatua; Avena fatua, 480 h, pethoxamid solo, 500 g ai/ha): 50%; inhibition at 500 g/ha (Brassica napus; Brassica napus, 480 h, pethoxamid solo, 500 g ai/ha): 0%; inhibition at 62.5 g/ha (Chenopodium album; Chenopodium album, 480 h, pethoxamid solo, 62.5 g ai/ha): 40%; inhibition at 62.5 g/ha (Lolium multiflorum; Lolium multiflorum, 480 h, pethoxamid solo, 62.5 g ai/ha): 50%; inhibition at 125 g/ha (Polygonum convolvulus; Fallopia convolvulus, 480 h, pethoxamid solo, 125 g ai/ha): 15%; inhibition at 250 g/ha (Polygonum convolvulus; Fallopia convolvulus, 480 h, pethoxamid solo, 250 g ai/ha): 15%; inhibition at 500 g/ha (Polygonum convolvulus; Fallopia convolvulus, 480 h, pethoxamid solo, 500 g ai/ha): 30%; inhibition at 62.5 g/ha (Setaria viridis; Setaria viridis, 480 h, pethoxamid solo, 62.5 g ai/ha): 80%; inhibition at 125 g/ha (Sorghum halepense; Sorghum halepense, 480 h, pethoxamid solo, 125 g ai/ha): 85%

Question: “(±)-2-exo-(2-Methylbenzyloxy)-1-methyl-4-isopropyl-7-oxabicyclo[2.2.1]heptane [herbicide A]” was tested. Which “herbicidal activity (%)” value (Abutilon theophrasti; [1]) did it give?
Answer: 30%

Question: What about the “herbicidal activity (%)” value (Alopecurus myosuroides; herbicide A solo, 62.5 g ai/ha) of the same molecule?
Answer: 98%

Question: And the “herbicidal activity (%)” value (Anthemis arvensis; 31.25 g ai/ha)?
Answer: 0%

Question: What about the “herbicidal activity (%)” value (Anthemis arvensis; 62.5 g ai/ha) of the same molecule?
Answer: 0%

Question: What about the “herbicidal activity (%)” value (Avena fatua; 62.5 g ai/ha) of the same molecule?
Answer: 0%

Question: And the “herbicidal activity (%)” value (Avena fatua; 125 g ai/ha)?
Answer: 25%

Question: What about the “herbicidal activity (%)” value (Avena fatua; 250 g ai/ha) of the same molecule?
Answer: 35%

Question: What about the “herbicidal activity (%)” value (Brassica napus; herbicide A solo, 250 g ai/ha) of the same molecule?
Answer: 0%

Question: What about the “herbicidal activity (%)” value (Chenopodium album; [1]) of the same molecule?
Answer: 40%

Question: What about the “herbicidal activity (%)” value (Lolium multiflorum; [1]) of the same molecule?
Answer: 60%

Question: What about the “herbicidal activity (%)” value (Polygonum convolvulus; 62.5 g ai/ha) of the same molecule?
Answer: 0%

Question: What about the “herbicidal activity (%)” value (Polygonum convolvulus; 125 g ai/ha) of the same molecule?
Answer: 0%

Question: And the “herbicidal activity (%)” value (Polygonum convolvulus; 250 g ai/ha)?
Answer: 15%

Question: What about the “herbicidal activity (%)” value (Setaria viridis; [1]) of the same molecule?
Answer: 90%

Question: And the “herbicidal activity (%)” value (Sorghum halepense; herbicide A solo, 62.5 g ai/ha)?
Answer: 80%
